This data set can be described thus: recombinant barcode read abundance after kanamycin selection (control-corrected) (log10(CPM+1)); higher = more efficient recombination; sequences stand for … in AGTGCAGAGAAAATCGGCCAGTTTTCTCTGCCTGCAGTCCGCATGCCGT…ATTTATGCAGCGGACTGCCTTTCTCCCAAAGTGATAAACCGGACAGTATCATGGACCGGTTTTCCCGGTAATCCGTATTTGCAAGGTTGGTTTCACT; site = the 11-nt target. The essentials:
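The screen was pooled in E. coli and paired targets with IS621 bridge RNA target-binding loops. Recombination efficiency is taken from barcode counts per million at recombinant junctions, averaged and adjusted against the control. Values, in the form log10(CPM+1), come from duplicate plating on chloramphenicol/ampicillin LB agar or on chloramphenicol/ampicillin/kanamycin with 0.1 mM IPTG.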
Take “GGACACCTGTGGGTTCTAACCTGTTGCCTAG [GGACACCCTAG_LTGcore_TG_RTGcore_CT] (site GGACACCCTAG) (LTG core: TG, RTG core: CT)”: the “recombinant barcode read abundance (log10)” value stood at 0.0753.
Next, “GGACACCTGTGGGTTCTAACCTGTTGCCTCA [GGACACCCTAG_LTGcore_TG_RTGcore_TG] (site GGACACCCTAG) (LTG core: TG, RTG core: TG)”: 0.15; “GGACACCTTTGGGTTCTAACCTGTTGCCTAA [GGACACCCTAG_LTGcore_TT_RTGcore_TT] (site GGACACCCTAG) (LTG core: TT, RTG core: TT)”: 0.175; “GGACACCTTTGGGTTCTAACCTGTTGCCTAG [GGACACCCTAG_LTGcore_TT_RTGcore_CT] (site GGACACCCTAG) (LTG core: TT, RTG core: CT)”: 0.0765.
For the sequence “GGCTCCCATTGGGTTCTAACCTGTTGCGGAG [GGCTCCCCTCC_LTGcore_AT_RTGcore_CT] (site GGCTCCCCTCC) (LTG core: AT, RTG core: CT)”, the “recombinant barcode read abundance (log10)” value came out at 0.157.
Regarding “GGCTCCCCTTGGGTTCTAACCTGTTGCGGAC [GGCTCCCCTCC_LTGcore_CT_RTGcore_GT] (site GGCTCCCCTCC) (LTG core: CT, RTG core: GT)”, the “recombinant barcode read abundance (log10)” value stood at 0.0822.
On to “GGCTCCCCTTGGGTTCTAACCTGTTGCGGGA [GGCTCCCCTCC_LTGcore_CT_RTGcore_TC] (site GGCTCCCCTCC) (LTG core: CT, RTG core: TC)”, for which the “recombinant barcode read abundance (log10)” value is 0.302.
“GGCTCCCCTTGGGTTCTAACCTGTTGCGGGC [GGCTCCCCTCC_LTGcore_CT_RTGcore_GC] (site GGCTCCCCTCC) (LTG core: CT, RTG core: GC)”: the “recombinant barcode read abundance (log10)” value came to 0.112.
“GGCTCCCGCTGGGTTCTAACCTGTTGCGGAG [GGCTCCCCTCC_LTGcore_GC_RTGcore_CT] (site GGCTCCCCTCC) (LTG core: GC, RTG core: CT)”: the “recombinant barcode read abundance (log10)” value is 0.0135.
As to “GGCTCCCGGTGGGTTCTAACCTGTTGCGGAG [GGCTCCCCTCC_LTGcore_GG_RTGcore_CT] (site GGCTCCCCTCC) (LTG core: GG, RTG core: CT)”, the “recombinant barcode read abundance (log10)” value was found to be 0.0853.
In the case of “GGCTCCCTATGGGTTCTAACCTGTTGCGGAG [GGCTCCCCTCC_LTGcore_TA_RTGcore_CT] (site GGCTCCCCTCC) (LTG core: TA, RTG core: CT)” it was 0.233; in that of “GGGAGCCACTGGGTTCTAACCTGTTGCTGGT [GGGAGCCCTCA_LTGcore_AC_RTGcore_AC] (site GGGAGCCCTCA) (LTG core: AC, RTG core: AC)”, 0.222.
Next, “GGGAGCCCCTGGGTTCTAACCTGTTGCTGGG [GGGAGCCCTCA_LTGcore_CC_RTGcore_CC] (site GGGAGCCCTCA) (LTG core: CC, RTG core: CC)”: 0.0526; “GGGAGCCCTTGGGTTCTAACCTGTTGCTGAC [GGGAGCCCTCA_LTGcore_CT_RTGcore_GT] (site GGGAGCCCTCA) (LTG core: CT, RTG core: GT)”: 1.06.
Next, “GGGAGCCCTTGGGTTCTAACCTGTTGCTGGA [GGGAGCCCTCA_LTGcore_CT_RTGcore_TC] (site GGGAGCCCTCA) (LTG core: CT, RTG core: TC)”: 0.172; “GGGAGCCCTTGGGTTCTAACCTGTTGCTGTA [GGGAGCCCTCA_LTGcore_CT_RTGcore_TA] (site GGGAGCCCTCA) (LTG core: CT, RTG core: TA)”: 0.029.
“GGGAGCCGTTGGGTTCTAACCTGTTGCTGAC [GGGAGCCCTCA_LTGcore_GT_RTGcore_GT] (site GGGAGCCCTCA) (LTG core: GT, RTG core: GT)”: the “recombinant barcode read abundance (log10)” value stood at 0.168.
As for “GGGAGCCGTTGGGTTCTAACCTGTTGCTGAG [GGGAGCCCTCA_LTGcore_GT_RTGcore_CT] (site GGGAGCCCTCA) (LTG core: GT, RTG core: CT)”, the “recombinant barcode read abundance (log10)” value came to 0.186.
As to “GGGAGCCTCTGGGTTCTAACCTGTTGCTGAG [GGGAGCCCTCA_LTGcore_TC_RTGcore_CT] (site GGGAGCCCTCA) (LTG core: TC, RTG core: CT)”, the “recombinant barcode read abundance (log10)” value worked out at 0.0348.
In the case of “GGGAGCCTCTGGGTTCTAACCTGTTGCTGGA [GGGAGCCCTCA_LTGcore_TC_RTGcore_TC] (site GGGAGCCCTCA) (LTG core: TC, RTG core: TC)”, the “recombinant barcode read abundance (log10)” value worked out at 0.0883.
In the case of “GGGAGCCTTTGGGTTCTAACCTGTTGCTGAA [GGGAGCCCTCA_LTGcore_TT_RTGcore_TT] (site GGGAGCCCTCA) (LTG core: TT, RTG core: TT)” it was 0.11.
Regarding “GGGCGGACTTGGGTTCTAACCTGTTGCGGAG [GGGCGGACTCC_LTGcore_CT_RTGcore_CT] (site GGGCGGACTCC) (LTG core: CT, RTG core: CT)”, the “recombinant barcode read abundance (log10)” value came to 2.08.
Next, “GGGCGGACTTGGGTTCTAACCTGTTGCGGCC [GGGCGGACTCC_LTGcore_CT_RTGcore_GG] (site GGGCGGACTCC) (LTG core: CT, RTG core: GG)”: 0.0677.
Take “GGGCGGACTTGGGTTCTAACCTGTTGCGGCG [GGGCGGACTCC_LTGcore_CT_RTGcore_CG] (site GGGCGGACTCC) (LTG core: CT, RTG core: CG)”: the “recombinant barcode read abundance (log10)” value came out at 0.232.
On to “GGGCGGACTTGGGTTCTAACCTGTTGCGGGG [GGGCGGACTCC_LTGcore_CT_RTGcore_CC] (site GGGCGGACTCC) (LTG core: CT, RTG core: CC)”, for which the “recombinant barcode read abundance (log10)” value amounted to 0.212.
Take “GGGCGGACTTGGGTTCTAACCTGTTGCGGTA [GGGCGGACTCC_LTGcore_CT_RTGcore_TA] (site GGGCGGACTCC) (LTG core: CT, RTG core: TA)”: the “recombinant barcode read abundance (log10)” value came to 0.0865.
For “GGGCGGACTTGGGTTCTAACCTGTTGCGGTT [GGGCGGACTCC_LTGcore_CT_RTGcore_AA] (site GGGCGGACTCC) (LTG core: CT, RTG core: AA)”, the “recombinant barcode read abundance (log10)” value stood at 0.765.
Next, “GGGCGGAGATGGGTTCTAACCTGTTGCGGTC [GGGCGGACTCC_LTGcore_GA_RTGcore_GA] (site GGGCGGACTCC) (LTG core: GA, RTG core: GA)”: 0.235; “GGGCGGATCTGGGTTCTAACCTGTTGCGGAG [GGGCGGACTCC_LTGcore_TC_RTGcore_CT] (site GGGCGGACTCC) (LTG core: TC, RTG core: CT)”: 0.798.
With “GGGCGGATTTGGGTTCTAACCTGTTGCGGAA [GGGCGGACTCC_LTGcore_TT_RTGcore_TT] (site GGGCGGACTCC) (LTG core: TT, RTG core: TT)”, the “recombinant barcode read abundance (log10)” value turned out to be 0.223.
As to “GGGCGGATTTGGGTTCTAACCTGTTGCGGAG [GGGCGGACTCC_LTGcore_TT_RTGcore_CT] (site GGGCGGACTCC) (LTG core: TT, RTG core: CT)”, the “recombinant barcode read abundance (log10)” value is 0.188.
Take “GGGCGTGAATGGGTTCTAACCTGTTGCCTAG [GGGCGTGCTAG_LTGcore_AA_RTGcore_CT] (site GGGCGTGCTAG) (LTG core: AA, RTG core: CT)”: the “recombinant barcode read abundance (log10)” value is 0.0426.
Consider “GGGCGTGCCTGGGTTCTAACCTGTTGCCTGG [GGGCGTGCTAG_LTGcore_CC_RTGcore_CC] (site GGGCGTGCTAG) (LTG core: CC, RTG core: CC)”, for which the “recombinant barcode read abundance (log10)” value stood at 0.138.
With “GGGCGTGCGTGGGTTCTAACCTGTTGCCTAG [GGGCGTGCTAG_LTGcore_CG_RTGcore_CT] (site GGGCGTGCTAG) (LTG core: CG, RTG core: CT)”, the “recombinant barcode read abundance (log10)” value turned out to be 0.0925.
As to “GGGCGTGCTTGGGTTCTAACCTGTTGCCTCC [GGGCGTGCTAG_LTGcore_CT_RTGcore_GG] (site GGGCGTGCTAG) (LTG core: CT, RTG core: GG)”, the “recombinant barcode read abundance (log10)” value came out at 1.53.
On to “GGGCGTGCTTGGGTTCTAACCTGTTGCCTGC [GGGCGTGCTAG_LTGcore_CT_RTGcore_GC] (site GGGCGTGCTAG) (LTG core: CT, RTG core: GC)”, for which the “recombinant barcode read abundance (log10)” value came to 0.847.
Next, “GGGCGTGCTTGGGTTCTAACCTGTTGCCTTC [GGGCGTGCTAG_LTGcore_CT_RTGcore_GA] (site GGGCGTGCTAG) (LTG core: CT, RTG core: GA)”: 0.564; “GGGCGTGTATGGGTTCTAACCTGTTGCCTAG [GGGCGTGCTAG_LTGcore_TA_RTGcore_CT] (site GGGCGTGCTAG) (LTG core: TA, RTG core: CT)”: 0; “GGGCGTGTATGGGTTCTAACCTGTTGCCTTA [GGGCGTGCTAG_LTGcore_TA_RTGcore_TA] (site GGGCGTGCTAG) (LTG core: TA, RTG core: TA)”: 0.36.
With “GGTGCCCCTTGGGTTCTAACCTGTTGCCGAC [GGTGCCCCTCG_LTGcore_CT_RTGcore_GT] (site GGTGCCCCTCG) (LTG core: CT, RTG core: GT)”, the “recombinant barcode read abundance (log10)” value was determined as 0.297.
Turning to “GGTGCCCCTTGGGTTCTAACCTGTTGCCGTC [GGTGCCCCTCG_LTGcore_CT_RTGcore_GA] (site GGTGCCCCTCG) (LTG core: CT, RTG core: GA)”, the “recombinant barcode read abundance (log10)” value worked out at 0.332.
For the sequence “GGTGCCCGATGGGTTCTAACCTGTTGCCGTC [GGTGCCCCTCG_LTGcore_GA_RTGcore_GA] (site GGTGCCCCTCG) (LTG core: GA, RTG core: GA)”, the “recombinant barcode read abundance (log10)” value turned out to be 0.134.
Next, “GGTGCCCTCTGGGTTCTAACCTGTTGCCGAG [GGTGCCCCTCG_LTGcore_TC_RTGcore_CT] (site GGTGCCCCTCG) (LTG core: TC, RTG core: CT)”: 0.0654.

For the origin of these results see the supplement of paper PMC11208160.
